From patent US12012410B2, “Substituted pyrazolo[1,5-a]pyrazines for spinal muscular atrophy” (REBORNA BIOSCIENCES, INC., priority 2018, dated 2024)

What follows are compounds tested on FL-SMN mRNA (SMN transcript containing exons 7 and 8) (assay: Live-cell assay to measure changes in FL-SMN mRNA levels (qPCR) after exposure to the compounds). Settings: fibroblasts derived from patients SMA (GM03813); 24 hours incubation.
Type: cell-based, human
Description: In this example, each test compound was administered to cultured cells, and changes in the expression levels of mRNA transcripts of SMN, i.e., FL-SMN containing exons 7 and 8 and Delta7 with exon 7 skipped, were examined using PCR.
Fibroblasts derived from patients SMA (GM03813) (Coriell Cell Repositories) were cultured with passages using DMEM (High Glucose) (Life Technologies) supplemented with 10% FBS (Life Technologies). Cells were seeded in tissue-culture-treated 96-well plates (Corning) at 1.5 or 0.5×10^4 cells/well in 100 μL of medium. The cells were incubated in 5% CO2 for 6 hours, and the medium was replaced with 100 μL of medium (with DMSO, 0.1% final concentration) containing each of the compounds given in the Examples. After additional incubation for 24 hours under the same conditions, the cells were washed once with D-PBS(—) (Wako) and 25 μL/well of the lysis solution (with gDNA Remove) contained in the SuperPrep (registered trademark) Cell Lysis & RT Kit for qPCR (Toyobo life science) was added according to the manufacturer's instructions so that the cells were lysed and the genomic DNA was degraded. Furthermore, 5 μL of the STOP solution (with RNase Inhibitor) contained in the kit was added to provide RNA-containing solutions. Six microliters of the RNA-containing solutions were each mixed with 14 μL of a reverse transcription solution containing transcriptase together with dNTP, random primers and an oligodT primer. Reverse transcription was performed at 37° C. (15 min), 50° C. (5 min), and 98° C. (5 min), to give total cDNAs. The total cDNAs were diluted 30-fold with Ultra-pure water (Invitrogen) to measure the expression levels of FL-SMN, delta7, and GAPDH. For quantitative PCR (qPCR), a PCR solution was prepared according to the instructions of the manufacturer of the THUNDERBIRD (registered trademark) Probe qPCR Mix (Toyobo life science). Five microliters of the diluted total cDNA solutions and oligo DNA standard solutions, each containing either 001-Standard FL-SMN (SEQ ID NO. 1) or 002-Standard delta7 (SEQ ID NO. 2), were each mixed with 10 μL of each of the PCR solutions containing a qPCR probe, primers, and PCR enzyme. […] The oligoDNA standard solutions were prepared as those containing either of 5×10^8, 5×10^7, 5×10^6, 5×10^5, 5×10^4, 5×10^3, 5×10^2, 5×10, 5, or 0 copies. For the oligo DNA standards, primers, and probes, oligonucleotides synthesized by Integrated DNA Technologies, Inc. (IDT) were used. […] FIGS. 3B and 3D show their detection mechanisms. The final concentrations of the primers and probes added were 0.4 μM and 0.15 μM, respectively. The qPCR was performed using the following conditions on a ViiA7 instrument (Applied Biosystems): first stage: 95° C. (1 min)→second stage: 95° C. (15 sec)→third stage: 60° C. (1 min)→40 repeated cycles of the second and third stages. The GAPDH mRNA was used as the internal control, and the commercially available 20×gene expression PCR assay (Life Technologies, 4326317E, Hs99999905_ml) and Standard GAPDH (SEQ ID NO. 7) (see FIG. 1) was used to determine the number of copies of this gene. The measurement values obtained for the samples to be measured were standardized against the respective value obtained for GAPDH.
Using the above-mentioned assays, the activities of the compounds of the Examples were evaluated. Specifically, the percentages of the FL-SMN and delta7 values obtained using DMSO without the compounds and standardized against GAPDH were set as 100% and those of the FL-SMN and delta7 values obtained at the time of administration of the compounds and standardized against GAPDH were calculated. […]

Row | Compound | Percentage of increase (FL-SMN mRNA standardized against GAPDH, DMSO control set as 100%)
1 | Cc1cn2nc(-c3nc4cc(F)c(C5CCN(C)CC5)cc4c(=O)[nH]3)cc2c(C)n1 [Example 1, 2-(4,6-Dimethylpyrazolo[1,5-a]pyrazin-2-yl)-7-fluoro-6-(1-methylpiperidin-4-yl)quinazolin-4(3H)-one] | **** (equal to or higher than 180%)
2 | Cc1cn2cc(-c3cc(C)c4nc(C5(F)CCN(C)CC5)[nH]c(=O)c4c3)cc(F)c2n1 [Example 89, 6-(8-fluoro-2-methylimidazo[1,2-a]pyridin-6-yl)-2-(4-fluoro-1-methylpiperidin-4-yl)-8-methylquinazolin-4(3H4)-one] | **** (equal to or higher than 180%)
3 | Cc1cn2cc(-c3cc(F)c4nc(C5(F)CCN(C)CC5)[nH]c(=O)c4c3)cc(F)c2n1 [Example 97, 8-fluoro-6-(8-fluoro-2-methylimidazo[1,2-a]pyridin-6-yl)-2-(4-fluoro-1-methylpiperidin-4-yl)quinazolin-4(3H)-one] | **** (equal to or higher than 180%)
4 | Cc1nc2cc(-c3ccc4nc(C5CCN(C)CC5)[nH]c(=O)c4c3)ccc2o1 [Example 72, 6-(2-methyl-1,3-benzoxazol-5-yl)-2-(1-methylpiperidin-4-yl)quinazolin-4(3H)-one] | * (equal to or higher than 100% but lower than 120%)
5 | Cc1cn2cc(-c3ccc4nc(C5CCN(C6CC6)CC5)[nH]c(=O)c4c3)ccc2n1 [Example 74, 2-(1-cyclopropylpiperidin-4-yl)-6-(2-methylimidazo[1,2-a]pyridin-6-yl)quinazolin-4(3H)-one] | ** (equal to or higher than 120% but lower than 150%)
6 | Cc1cn2cc(-c3cc(C)c4nc(C5CCN(C)CC5)[nH]c(=O)c4c3)ccc2n1 [Example 19, 8-Methyl-6-(2-methylimidazo[1,2-α]pyridin-6-yl)-2-(1-methylpiperidin-4-yl)quinazolin-4(3H)-one] | **** (equal to or higher than 180%)
7 | Cc1cc2nc(-c3nc4ccc(N5CCN(C6CC6)CC5)cc4c(=O)[nH]3)cn2c(C)n1 [Example 117, 6-(4-cyclopropylpiperazin-1-yl)-2-(5,7-dimethylimidazo[1,2-c]pyrimidin-2-yl)quinazolin-4(3H)-one] | **** (equal to or higher than 180%)
8 | Cc1cn2cc(-c3nc4ccc(N5CCN(C)CC5)cc4c(=O)[nH]3)nc2c(C)n1 [Example 50, 2-(6,8-dimethylimidazo[1,2-a]pyrazin-2-yl)-6-(4-methylpiperazin-1-yl)quinazolin-4(3H)-one] | ** (equal to or higher than 120% but lower than 150%)
9 | Cc1cn2cc(-c3cc(F)c4nc(C5(F)CCN(C)CC5)[nH]c(=O)c4c3)ccc2n1 [Example 94, 8-fluoro-2-(4-fluoro-1-methylpiperidin-4-yl)-6-(2-methylimidazo[1,2-a]pyridin-6-yl)quinazolin-4(3H)-one] | *** (equal to or higher than 150% but lower than 180%)
10 | CN1CCC(c2nc3ccc(-c4ccc5nccn5c4)cc3c(=O)[nH]2)CC1 [Example 65, 6-(imidazo[1,2-a]pyridin-6-yl)-2-(1-methylpiperidin-4-yl)quinazolin-4(3H)-one] | ** (equal to or higher than 120% but lower than 150%)
11 | Cc1nc2c(F)cc(-c3ccc4nc(C5CCN(C6CC6)CC5)[nH]c(=O)c4n3)cc2o1 [Example 106, 2-(1-cyclopropylpiperidin-4-yl)-6-(4-fluoro-2-methyl-1,3-benzoxazol-6-yl)pyrido[3,2-d]pyrimidin-4(3H)-one] | ** (equal to or higher than 120% but lower than 150%)
12 | Cc1cn2cc(-c3nc4cc(F)c(N5CCN(C)CC5)cc4c(=O)[nH]3)cc(C)c2n1 [Example 57, 2-(2,8-dimethylimidazo[1,2-a]pyridin-6-yl)-7-fluoro-6-(4-methylpiperazin-1 - yl)quinazolin-4(3H)-one] | ** (equal to or higher than 120% but lower than 150%)
13 | Cc1cn2cc(-c3ccc4nc(C5CCN(C)CC5)[nH]c(=O)c4c3)cc(C)c2n1 [Example 23, 6-(2,8-dimethylimidazo[1,2-a]pyridine-6-yl)-2-(1-methylpiperidin-4-yl) kinazoline-4 (3H)—one] | *** (equal to or higher than 150% but lower than 180%)
14 | Cc1cn2cc(-c3ccc4nc(C5(F)CCN(C6CC6)CC5)[nH]c(=O)c4c3)cc(F)c2n1 [Example 85, 2-(4-fluoro-1-cyclopropylpiperidin-4-yl)-6-(8-fluoro-2-methylimidazo[1,2-a]pyridin-6-yl)quinazolin-4(3H)-one] | **** (equal to or higher than 180%)
15 | CN1CCC(c2ccc3nc(C4=NOC5(CCN(C)CC5)C4)[nH]c(=O)c3c2)CC1 [Example 43, 2-(8-methyl-1-oxa-2,8-diazaspiro[4.5]dec-2-en-3-yl)-6-(1-methylpiperidin-4-yl)quinazolin-4(3H)-one] | * (equal to or higher than 100% but lower than 120%)
16 | Cc1nn(C)c2cc(F)c(-c3nc4ccc(N5CCN(C)CC5)cc4c(=O)[nH]3)cc12 [Example 59, 2-(6-fluoro-1,3-dimethyl-1H-indazol-5-yl)-6-(4-methylpiperazin-1-yl)quinazolin-4(3H)-one] | * (equal to or higher than 100% but lower than 120%)
17 | Cc1cn2nc(-c3nc4ccc(N5CCN6CCC[C@@H]6C5)cc4c(=O)[nH]3)cc2c(C)n1 [Example 126, (R)-2-(4,6-dimethylpyrazolo[1,5-a]pyrazin-2-yl)-6-(hexahydropyrrolo[1,2-a]pyrazin-2(1H)-yl)quinazolin-4(3H)-one] | **** (equal to or higher than 180%)
18 | CN1CCN(c2ccc3nc(C4=NOC5(CCN(C)CC5)C4)[nH]c(=O)c3c2)CC1 [Example 42, 2-(8-methyl-1-oxa-2,8-diazaspiro[4.5]dec-2-en-3-yl)-6-(4-methylpiperazin-1-yl)quinazolin-4(3H)-one] | * (equal to or higher than 100% but lower than 120%)
19 | COc1ccc(-c2cc(F)c3nc(C4CCN(C5CC5)CC4)[nH]c(=O)c3c2)cc1F [Example 35, 2-(1-cyclopropylpiperidin-4-yl)-8-fluoro-6-(3-fluoro-4-methoxyphenyl) quinazolin-4(3H)-one] | **** (equal to or higher than 180%)
20 | Cc1nc2c(F)cc(-c3ccc4c(=O)n(C5CCN(C6CC6)CC5)cnc4c3)cc2o1 [Example 34, 3-(1-cyclopropylpiperidin-4-yl)-7-(4-fluoro-2-methyl-1,3-benzoxazol-6-yl)quinazolin-4(3H)-one] | **** (equal to or higher than 180%)
21 | Cc1cn2cc(-c3ccc4nc(C5(F)CCN(CC(F)F)CC5)[nH]c(=O)c4c3)cc(F)c2n1 [Example 93, 2-[1-(2,2-difluoroethyl)-4-fluoropiperidin-4-yl]-6-(8-fluoro-2-methylimidazo[1,2-a]pyridin-6-yl)quinazolin-4(3H)-one] | *** (equal to or higher than 150% but lower than 180%)
22 | Cc1nc2c(F)cc(-c3cc4c(=O)[nH]c(C5CCN(C6CC6)CC5)nc4cn3)cc2o1 [Example 115, 2-(1-cyclopropylpiperidin-4-yl)-6-(4-fluoro-2-methyl-1,3-benzoxazol-6-yl)pyrido[3,4-d]pyrimidin-4(3H)-one] | **** (equal to or higher than 180%)
